AC50 data for eleven compounds are collected here from ChEMBL document CHEMBL5291721, “A preclinical secondary pharmacology resource illuminates target-adverse drug reaction associations of marketed drugs” (Nat Commun, 2023).

In one assay the target is T1, Estrogen receptor (Homo sapiens, UniProt P03372).
T1 sequence (P03372 whole entry): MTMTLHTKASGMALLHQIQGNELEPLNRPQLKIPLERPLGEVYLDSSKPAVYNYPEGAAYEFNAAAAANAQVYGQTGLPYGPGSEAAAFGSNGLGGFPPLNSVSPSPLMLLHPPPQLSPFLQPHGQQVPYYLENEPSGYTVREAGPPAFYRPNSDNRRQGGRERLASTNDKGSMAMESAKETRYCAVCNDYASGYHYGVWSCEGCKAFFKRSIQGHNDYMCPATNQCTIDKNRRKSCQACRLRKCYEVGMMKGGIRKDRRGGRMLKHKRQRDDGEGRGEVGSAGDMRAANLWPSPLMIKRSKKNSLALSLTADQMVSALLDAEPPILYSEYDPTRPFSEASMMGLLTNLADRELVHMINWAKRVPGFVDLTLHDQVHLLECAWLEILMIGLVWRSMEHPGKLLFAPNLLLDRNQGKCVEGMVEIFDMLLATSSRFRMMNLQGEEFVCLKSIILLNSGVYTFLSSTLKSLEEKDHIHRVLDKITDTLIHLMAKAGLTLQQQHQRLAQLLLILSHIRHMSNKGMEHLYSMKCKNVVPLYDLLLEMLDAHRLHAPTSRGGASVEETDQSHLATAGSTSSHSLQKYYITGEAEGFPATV

Assay [1] deals with cGMP-inhibited 3',5'-cyclic phosphodiesterase 3A (Homo sapiens, UniProt Q14432). It is filed as functional.
Sequence of cGMP-inhibited 3',5'-cyclic phosphodiesterase 3A (Q14432 whole entry): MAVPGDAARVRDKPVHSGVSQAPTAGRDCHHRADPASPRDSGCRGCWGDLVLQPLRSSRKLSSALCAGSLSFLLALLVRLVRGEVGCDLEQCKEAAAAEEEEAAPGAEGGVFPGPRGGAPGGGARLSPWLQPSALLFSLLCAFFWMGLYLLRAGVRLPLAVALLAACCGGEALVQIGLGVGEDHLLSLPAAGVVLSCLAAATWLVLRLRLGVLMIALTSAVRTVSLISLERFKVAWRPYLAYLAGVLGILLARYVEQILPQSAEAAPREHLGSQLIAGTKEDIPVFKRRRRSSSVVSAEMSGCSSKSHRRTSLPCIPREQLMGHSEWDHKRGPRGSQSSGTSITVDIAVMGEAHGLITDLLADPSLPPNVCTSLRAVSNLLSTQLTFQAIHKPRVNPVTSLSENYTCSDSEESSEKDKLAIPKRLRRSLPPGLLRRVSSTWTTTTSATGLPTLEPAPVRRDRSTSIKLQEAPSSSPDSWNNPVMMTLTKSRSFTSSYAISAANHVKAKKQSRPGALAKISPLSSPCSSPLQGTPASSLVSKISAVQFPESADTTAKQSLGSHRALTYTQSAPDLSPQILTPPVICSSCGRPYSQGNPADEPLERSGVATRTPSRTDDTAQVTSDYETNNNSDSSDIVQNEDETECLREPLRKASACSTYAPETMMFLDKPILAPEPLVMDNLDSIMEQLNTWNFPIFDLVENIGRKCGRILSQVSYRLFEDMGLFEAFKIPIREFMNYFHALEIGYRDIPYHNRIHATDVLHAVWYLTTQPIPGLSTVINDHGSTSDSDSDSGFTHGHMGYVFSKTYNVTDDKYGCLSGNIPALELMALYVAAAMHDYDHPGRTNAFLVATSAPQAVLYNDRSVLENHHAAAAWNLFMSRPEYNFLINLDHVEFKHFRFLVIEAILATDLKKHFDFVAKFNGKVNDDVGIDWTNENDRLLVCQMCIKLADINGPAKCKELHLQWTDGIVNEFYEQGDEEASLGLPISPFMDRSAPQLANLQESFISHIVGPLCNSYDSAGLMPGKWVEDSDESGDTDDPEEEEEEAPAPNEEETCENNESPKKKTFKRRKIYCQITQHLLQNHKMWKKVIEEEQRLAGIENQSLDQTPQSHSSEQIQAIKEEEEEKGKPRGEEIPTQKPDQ
The target in assay [2] is T2, Prostaglandin G/H synthase 1 (Homo sapiens, UniProt P23219). It is filed as functional.
T2 sequence (P23219 whole entry): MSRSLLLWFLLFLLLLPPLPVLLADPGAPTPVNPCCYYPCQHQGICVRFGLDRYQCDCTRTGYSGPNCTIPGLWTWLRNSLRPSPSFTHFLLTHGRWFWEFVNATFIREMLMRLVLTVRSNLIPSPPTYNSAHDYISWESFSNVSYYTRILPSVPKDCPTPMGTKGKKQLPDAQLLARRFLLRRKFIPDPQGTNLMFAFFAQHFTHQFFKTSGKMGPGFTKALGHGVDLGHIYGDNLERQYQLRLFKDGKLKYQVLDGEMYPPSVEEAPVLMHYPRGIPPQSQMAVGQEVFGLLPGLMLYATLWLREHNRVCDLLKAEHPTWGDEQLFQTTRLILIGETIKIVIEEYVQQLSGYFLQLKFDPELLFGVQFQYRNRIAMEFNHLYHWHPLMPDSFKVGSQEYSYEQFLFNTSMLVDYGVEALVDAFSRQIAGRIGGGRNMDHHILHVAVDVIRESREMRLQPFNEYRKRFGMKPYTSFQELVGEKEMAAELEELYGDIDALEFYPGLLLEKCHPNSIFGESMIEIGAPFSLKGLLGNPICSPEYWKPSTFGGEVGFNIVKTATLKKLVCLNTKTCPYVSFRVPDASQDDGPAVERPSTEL
Assay [3] has as its target Voltage-gated inwardly rectifying potassium channel KCNH2 (Homo sapiens, UniProt Q12809). It is filed as functional. Particulars: read-out: AC50.
Assay [4] concerns the target 3',5'-cyclic-AMP phosphodiesterase 4A (Homo sapiens, UniProt P27815). It is filed as functional.
Assay [5] addresses T3, Alpha-1A adrenergic receptor (Homo sapiens, UniProt P35348).
T3 sequence (P35348 whole entry): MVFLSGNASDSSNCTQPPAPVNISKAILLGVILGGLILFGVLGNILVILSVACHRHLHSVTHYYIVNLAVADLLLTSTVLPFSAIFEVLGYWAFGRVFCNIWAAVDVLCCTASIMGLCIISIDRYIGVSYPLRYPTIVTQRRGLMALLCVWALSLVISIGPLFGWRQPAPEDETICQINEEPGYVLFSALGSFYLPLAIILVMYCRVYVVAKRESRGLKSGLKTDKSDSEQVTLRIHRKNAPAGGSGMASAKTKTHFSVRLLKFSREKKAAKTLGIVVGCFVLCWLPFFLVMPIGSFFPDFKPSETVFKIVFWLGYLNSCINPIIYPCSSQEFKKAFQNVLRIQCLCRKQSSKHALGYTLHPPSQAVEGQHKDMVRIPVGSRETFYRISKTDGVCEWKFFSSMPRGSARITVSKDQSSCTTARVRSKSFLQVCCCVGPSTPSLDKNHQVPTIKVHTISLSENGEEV
It is filed as functional, cell-based.

For assay [6], the target named is T2, Prostaglandin G/H synthase 1. In kind it is functional. The source holds these as a separate data set.
Assay [7] has as its target T4, Muscarinic acetylcholine receptor M1 (Homo sapiens, UniProt P11229).
T4 sequence (P11229 whole entry): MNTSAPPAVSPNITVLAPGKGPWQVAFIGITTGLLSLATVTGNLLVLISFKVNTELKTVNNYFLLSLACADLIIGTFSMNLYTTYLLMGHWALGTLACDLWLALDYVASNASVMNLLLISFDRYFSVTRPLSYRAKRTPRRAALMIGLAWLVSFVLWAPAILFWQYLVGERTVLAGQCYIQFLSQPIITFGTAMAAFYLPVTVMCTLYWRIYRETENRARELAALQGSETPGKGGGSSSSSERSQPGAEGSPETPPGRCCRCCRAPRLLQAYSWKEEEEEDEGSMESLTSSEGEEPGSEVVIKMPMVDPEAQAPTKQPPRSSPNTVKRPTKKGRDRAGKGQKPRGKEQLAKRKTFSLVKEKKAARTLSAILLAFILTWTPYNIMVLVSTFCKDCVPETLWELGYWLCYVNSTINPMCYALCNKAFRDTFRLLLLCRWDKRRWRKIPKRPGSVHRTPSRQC
It is filed as functional, cell-based.

For another assay, the target named is Histamine H3 receptor (Homo sapiens, UniProt Q9Y5N1).
Assay [8] has as its target T5, Muscarinic acetylcholine receptor M2 (Homo sapiens, UniProt P08172).
T5 sequence (P08172 whole entry): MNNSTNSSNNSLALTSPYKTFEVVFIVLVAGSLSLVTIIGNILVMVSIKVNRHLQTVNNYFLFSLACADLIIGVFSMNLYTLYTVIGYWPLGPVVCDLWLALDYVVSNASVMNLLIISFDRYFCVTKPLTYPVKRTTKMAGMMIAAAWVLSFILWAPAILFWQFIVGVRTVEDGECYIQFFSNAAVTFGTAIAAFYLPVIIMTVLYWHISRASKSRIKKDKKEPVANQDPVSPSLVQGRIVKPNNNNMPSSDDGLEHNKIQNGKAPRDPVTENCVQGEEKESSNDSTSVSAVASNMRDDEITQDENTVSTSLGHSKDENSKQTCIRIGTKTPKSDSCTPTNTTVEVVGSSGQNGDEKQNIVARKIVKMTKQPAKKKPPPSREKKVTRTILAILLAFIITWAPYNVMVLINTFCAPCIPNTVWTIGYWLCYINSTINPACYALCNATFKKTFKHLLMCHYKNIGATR

Another assay addresses Mu-type opioid receptor (Homo sapiens, UniProt P35372).
Assay [9] deals with T3, Alpha-1A adrenergic receptor. It is filed as functional, cell-based. The source holds these as a separate data set.
The target of assay [10] is Sodium-dependent serotonin transporter (Homo sapiens, UniProt P31645).
Sequence of Sodium-dependent serotonin transporter (P31645 whole entry): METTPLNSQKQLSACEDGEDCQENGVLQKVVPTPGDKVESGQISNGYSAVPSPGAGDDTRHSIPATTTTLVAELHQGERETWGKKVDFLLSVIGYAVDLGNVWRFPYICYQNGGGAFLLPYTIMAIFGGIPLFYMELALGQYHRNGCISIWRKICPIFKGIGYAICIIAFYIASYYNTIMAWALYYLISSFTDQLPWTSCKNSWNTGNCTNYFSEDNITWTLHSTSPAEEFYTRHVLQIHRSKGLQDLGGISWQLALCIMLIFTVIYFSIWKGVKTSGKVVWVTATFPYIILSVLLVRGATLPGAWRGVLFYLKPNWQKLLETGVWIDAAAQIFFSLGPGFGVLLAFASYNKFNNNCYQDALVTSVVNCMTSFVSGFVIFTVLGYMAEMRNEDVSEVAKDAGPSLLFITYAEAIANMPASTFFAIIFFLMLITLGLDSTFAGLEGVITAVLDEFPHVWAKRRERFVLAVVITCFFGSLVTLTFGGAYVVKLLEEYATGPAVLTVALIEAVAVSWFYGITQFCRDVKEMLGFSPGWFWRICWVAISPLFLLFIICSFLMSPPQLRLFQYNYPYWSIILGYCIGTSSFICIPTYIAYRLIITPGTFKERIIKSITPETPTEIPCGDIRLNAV
Further: assay procedure not described here.

Sequence of 3',5'-cyclic-AMP phosphodiesterase 4A (P27815 whole entry): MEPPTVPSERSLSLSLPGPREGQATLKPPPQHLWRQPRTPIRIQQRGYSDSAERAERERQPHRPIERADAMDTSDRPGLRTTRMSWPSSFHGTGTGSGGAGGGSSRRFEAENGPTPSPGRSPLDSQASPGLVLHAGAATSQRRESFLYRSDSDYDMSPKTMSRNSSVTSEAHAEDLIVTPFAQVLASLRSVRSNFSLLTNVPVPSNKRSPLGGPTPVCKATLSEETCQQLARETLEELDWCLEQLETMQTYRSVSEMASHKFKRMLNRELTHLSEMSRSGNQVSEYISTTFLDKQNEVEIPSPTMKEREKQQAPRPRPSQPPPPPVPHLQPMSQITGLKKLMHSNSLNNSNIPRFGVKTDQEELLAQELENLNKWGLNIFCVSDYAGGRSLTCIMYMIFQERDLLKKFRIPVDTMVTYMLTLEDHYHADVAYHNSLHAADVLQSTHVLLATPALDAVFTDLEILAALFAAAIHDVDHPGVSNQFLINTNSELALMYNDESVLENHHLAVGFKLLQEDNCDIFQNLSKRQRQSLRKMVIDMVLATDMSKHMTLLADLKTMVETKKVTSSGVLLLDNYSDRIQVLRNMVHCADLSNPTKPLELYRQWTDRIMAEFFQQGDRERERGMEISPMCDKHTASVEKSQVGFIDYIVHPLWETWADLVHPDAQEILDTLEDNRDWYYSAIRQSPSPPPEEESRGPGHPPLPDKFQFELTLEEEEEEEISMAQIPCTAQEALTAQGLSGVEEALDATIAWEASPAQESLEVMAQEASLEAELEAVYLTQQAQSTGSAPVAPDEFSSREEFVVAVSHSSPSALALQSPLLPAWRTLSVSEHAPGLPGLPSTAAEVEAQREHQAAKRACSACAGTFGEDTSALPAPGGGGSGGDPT
Sequence of Mu-type opioid receptor (P35372 whole entry): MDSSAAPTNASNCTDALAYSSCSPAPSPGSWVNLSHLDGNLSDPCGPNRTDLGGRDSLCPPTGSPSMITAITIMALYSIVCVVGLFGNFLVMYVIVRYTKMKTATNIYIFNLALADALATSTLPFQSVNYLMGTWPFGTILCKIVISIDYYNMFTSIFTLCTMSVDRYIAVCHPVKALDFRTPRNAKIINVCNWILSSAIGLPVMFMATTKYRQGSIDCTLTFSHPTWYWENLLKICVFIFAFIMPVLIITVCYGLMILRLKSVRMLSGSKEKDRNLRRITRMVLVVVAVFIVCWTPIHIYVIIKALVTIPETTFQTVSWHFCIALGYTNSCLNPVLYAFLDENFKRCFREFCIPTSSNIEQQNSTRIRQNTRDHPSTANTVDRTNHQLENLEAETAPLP
Sequence of Voltage-gated inwardly rectifying potassium channel KCNH2 (Q12809 whole entry): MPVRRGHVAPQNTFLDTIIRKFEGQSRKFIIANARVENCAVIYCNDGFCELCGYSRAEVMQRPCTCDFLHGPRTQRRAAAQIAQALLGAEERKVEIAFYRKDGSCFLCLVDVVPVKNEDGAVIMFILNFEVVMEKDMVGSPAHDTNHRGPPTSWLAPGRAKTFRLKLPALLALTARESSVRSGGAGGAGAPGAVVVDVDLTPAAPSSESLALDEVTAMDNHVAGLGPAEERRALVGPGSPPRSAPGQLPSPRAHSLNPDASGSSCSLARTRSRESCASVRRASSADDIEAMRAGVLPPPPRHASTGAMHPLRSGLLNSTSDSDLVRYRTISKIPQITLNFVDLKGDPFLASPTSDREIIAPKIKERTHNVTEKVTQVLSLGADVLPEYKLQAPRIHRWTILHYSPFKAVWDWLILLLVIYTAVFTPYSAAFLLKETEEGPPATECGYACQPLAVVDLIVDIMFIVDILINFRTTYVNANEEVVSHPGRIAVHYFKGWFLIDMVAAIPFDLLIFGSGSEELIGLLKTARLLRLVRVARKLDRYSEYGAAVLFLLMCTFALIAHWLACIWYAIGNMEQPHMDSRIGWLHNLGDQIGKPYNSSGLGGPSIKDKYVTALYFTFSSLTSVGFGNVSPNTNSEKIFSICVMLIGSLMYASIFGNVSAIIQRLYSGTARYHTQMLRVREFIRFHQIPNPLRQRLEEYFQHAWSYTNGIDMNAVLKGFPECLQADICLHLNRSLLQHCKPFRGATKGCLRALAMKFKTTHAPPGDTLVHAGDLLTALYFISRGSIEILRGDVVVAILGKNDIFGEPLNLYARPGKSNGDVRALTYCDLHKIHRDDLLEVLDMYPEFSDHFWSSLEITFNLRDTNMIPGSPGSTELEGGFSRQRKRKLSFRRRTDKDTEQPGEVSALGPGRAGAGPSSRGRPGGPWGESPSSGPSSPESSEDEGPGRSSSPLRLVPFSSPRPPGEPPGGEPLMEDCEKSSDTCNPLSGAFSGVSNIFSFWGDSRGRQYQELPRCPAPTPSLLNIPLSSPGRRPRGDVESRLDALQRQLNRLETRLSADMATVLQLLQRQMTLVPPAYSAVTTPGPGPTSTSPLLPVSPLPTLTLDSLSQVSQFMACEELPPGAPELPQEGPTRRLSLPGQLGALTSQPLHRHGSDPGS

Take `CC(C)(C)CC(C)(C)c1ccc(O)c(Cc2ccc(Cl)cc2Cl)c1` [CLOFOCTOL]: the AC50 (in general, the concentration giving half of the maximal activity seen) was 8.45 µM at Estrogen receptor; 5.81 µM in assay [1]; 29.2 µM in [2]; 11 µM in assay [3]; 5.93 µM in [4]; over 30 µM in assay [5]. The AC50 is 2.56 µM in assay [6]; over 10 µM in assay [7]; over 30 µM at Histamine H3 receptor; over 10 µM in assay [8]; 22 µM at Mu-type opioid receptor; over 30 µM in assay [9]. For the same compound, the activity in assay [10] was half-maximal at 5.43 µM (AC50).
In the case of `CCC(CC)(CC(=O)Nc1cccc(/C=C/c2nc(C3CCC3)cs2)c1)C(=O)O`, the AC50 on Estrogen receptor was over 30 µM; in [1] it was over 30 µM; in assay [2], over 30 µM; in assay [3], over 30 µM; in [4] it was over 30 µM; in [5] it was over 3 µM. The AC50 in [6] is 26.2 µM; in assay [7], over 3 µM; on Histamine H3 receptor, over 30 µM; in [8], over 30 µM; at Mu-type opioid receptor it was over 30 µM; in assay [9], over 10 µM. In assay [10], this compound registered an AC50 of over 30 µM.
For `CCN(CC)CCNc1ccc(CO)c2sc3ccccc3c(=O)c12` [HYCANTHONE], the AC50 at Estrogen receptor was over 30 µM; in assay [1], over 30 µM; in assay [2], over 30 µM; in assay [3] it was 3.6 µM; in assay [4] it was over 30 µM; in assay [5] it was 1.4 µM. For the same compound, the concentration at half-maximal activity (AC50) in assay [6] was over 30 µM; in assay [7], 17.6 µM; on Histamine H3 receptor, 2.14 µM; in [8], 4.47 µM; on Mu-type opioid receptor, 23 µM; in assay [9] it was over 30 µM. In addition, in assay [10], the AC50 worked out at 16 µM.
Take `CCCNC(C)C(=O)Nc1c(C)csc1C(=O)OC` (centres undefined) [ARTICAINE]: the AC50 (on Estrogen receptor; in [1]; in [2]; in assay [3]; in assay [4]; in assay [5]) was over 30 µM throughout. Besides, the AC50 (in [6]; in assay [7]; at Histamine H3 receptor; in [8]; at Mu-type opioid receptor; in assay [9]) was over 30 µM each time. Moreover, the AC50 in assay [10] is over 30 µM.
As to `CC(=O)Oc1c(C)c(C)c2c(c1C)CC[C@@](C)(CCC[C@H](C)CCC[C@H](C)CCCC(C)C)O2`, the half-maximal activity concentration (AC50) at Estrogen receptor is over 30 µM; in assay [1], 0.933 µM; in assay [2], over 30 µM; in assay [3], over 30 µM; in [4] it was 9.38 µM; in [5], over 30 µM. Besides, the AC50 (in assay [6]; in assay [7]; on Histamine H3 receptor; in assay [8]; at Mu-type opioid receptor; in assay [9]) was over 30 µM in each case. The compound further registered an AC50 in assay [10] of over 30 µM.
`CC[C@@H](C(N)=O)N1CCCC1=O`: the AC50 (on Estrogen receptor; in assay [1]; in [2]; in assay [3]; in assay [4]; in assay [5]) was over 30 µM each time. For the same compound, the concentration at half-maximal activity (AC50) (in [6]; in assay [7]; on Histamine H3 receptor; in assay [8]; on Mu-type opioid receptor; in assay [9]) was over 30 µM throughout. This compound also had an AC50 in assay [10] of over 30 µM.
In the case of `CC(=O)[C@@]1(O)CC[C@H]2[C@@H]3C=C(C)C4=CC(=O)CC[C@]4(C)[C@H]3CC[C@@]21C`, the AC50 (on Estrogen receptor; in assay [1]; in assay [2]; in assay [3]; in [4]; in assay [5]) was over 30 µM throughout. Further, the AC50 in [6] was over 30 µM; in assay [7] it was 15.3 µM; at Histamine H3 receptor it was over 30 µM; in assay [8], over 30 µM; at Mu-type opioid receptor, over 30 µM; in assay [9] it was over 30 µM. Also, the AC50 in [10] was over 30 µM.
For `O=[N+]([O-])c1cn2c(n1)OC[C@@H](OCc1ccc(OC(F)(F)F)cc1)C2` [PRETOMANID], the AC50 on Estrogen receptor is over 30 µM; in assay [1], over 30 µM; in assay [2], over 30 µM; in [4] it was over 30 µM; in [5], over 10 µM; in assay [6], over 30 µM. Moreover, the half-maximal activity concentration (AC50) in [7] is 10.6 µM; at Histamine H3 receptor it was over 30 µM; in [8], over 30 µM; on Mu-type opioid receptor it was over 30 µM; in assay [9] it was over 10 µM; in [10], over 30 µM.
Turning to `COc1ccc(C(=O)Nc2ccccc2CCC2CCCCN2C)cc1` (centres undefined) [ENCAINIDE], the AC50 (on Estrogen receptor; in assay [1]; in assay [2]; in assay [4]; in assay [5]; in assay [6]) was over 30 µM throughout. The AC50 (in [7]; at Histamine H3 receptor; in [8]; at Mu-type opioid receptor; in assay [9]; in [10]) was over 30 µM throughout.
With `OC(c1ccccc1)(c1ccccc1)C12CC[N+](CCOCc3ccccc3)(CC1)CC2`, the AC50 on Estrogen receptor is over 30 µM; in [1] it was over 30 µM; in assay [2], over 30 µM; in assay [4] it was 15.6 µM; in assay [5] it was over 30 µM; in [6], over 30 µM. In addition, the AC50 in assay [7] is 0.0053 µM; at Histamine H3 receptor it was over 30 µM; in assay [8] it was 0.0044 µM; at Mu-type opioid receptor, 1.07 µM; in assay [9] it was over 30 µM; in assay [10] it was 0.302 µM.
As for `CC1=C(/C=C/C(C)=C/C=C/C(C)=C/C=C/C=C(C)/C=C/C=C(C)/C=C/C2=C(C)CCCC2(C)C)C(C)(C)CCC1` [BETA CAROTENE], the AC50 on Estrogen receptor was over 30 µM; in assay [1], over 30 µM; in assay [2] it was 5.22 µM; in assay [4] it was over 30 µM; in assay [5], over 30 µM; in [6], 8.1 µM. Further, the concentration at half-maximal activity (AC50) (in [7]; at Histamine H3 receptor; in [8]; at Mu-type opioid receptor; in [9]; in assay [10]) was over 30 µM in each case.
